From patent US8153781B2, “Dendrimer conjugates of agonists and antagonists of the GPCR superfamily” (The United States of America as represented by the …, priority 2007, dated 2012) come the findings set out here.

The target in experiment [1] is T1, hA2A AR (Homo sapiens, UniProt P29274). Nature of the experiment: Radioligand membrane binding assay, A2A AR. Further details: expressed in transfected cells. The settings on record: for Ki: Table 3, expressed in CHO cells. The protocol:
(§1) Radioligand Membrane Binding Experiments. Radioligand binding assays were performed for A1, A2A, and A3 ARs. Each tube in the binding assay contained 100 μL of membrane suspension (20 μg of protein), 50 μL of agonist radioligand, and 50 μL of increasing concentrations of the test ligands in Tris-HCl buffer (50 mM, pH 7.5) containing 10 mM MgCl2. Nonspecific binding was determined using […] 5′-N-ethylcarboxamidoadenosine diluted with the buffer. The mixtures were incubated at 25° C. for 60 min. Binding reactions were terminated by filtration through Whatman GF/B filters under a reduced pressure using a MT-24 cell harvester (Brandell, Gaithersburg, Md.). Filters were washed three times with 5 mL of 50 mM ice-cold Tris-HCl buffer (pH 7.5). […] After the filters were washed, the radioactivity was measured using a Beckman γ-counter. For the A1 and A2A assays, the radioactive agonists [^3H] N^6-chlorocyclopentyladenosine and [^3H] 2-(4-(2-carboxyethyl)phenylethylamino)-5′-N-ethylcaboxamido-adenosine were used, respectively. After the filters were washed, they were placed in scintillation vials containing 5 mL of Hydrofluor scintillation buffer and counted using a Perkin Elmer Liquid Scintillation Analyzer. The Ki value was determined using GraphPad Prism for all assays.

Experiment [2] has as its target T1, hA2A AR.
The target in experiment [3] is T2, A1AR (Homo sapiens, UniProt P30542).
T2 construct: expressed in transfected cells; host or cells: CHO cells
T2 sequence (P30542 1-326): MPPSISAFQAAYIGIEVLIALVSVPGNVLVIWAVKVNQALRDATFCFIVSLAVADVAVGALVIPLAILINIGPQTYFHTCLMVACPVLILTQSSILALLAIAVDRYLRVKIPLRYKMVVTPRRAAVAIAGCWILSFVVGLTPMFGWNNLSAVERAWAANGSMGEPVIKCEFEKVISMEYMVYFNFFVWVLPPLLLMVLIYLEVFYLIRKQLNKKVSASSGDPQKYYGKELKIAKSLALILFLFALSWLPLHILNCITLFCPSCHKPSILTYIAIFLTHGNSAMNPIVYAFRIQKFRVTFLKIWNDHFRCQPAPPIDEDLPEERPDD
In words: Binding at A1AR with [3H]CCPA, CHO cells.

Experiment [4] deals with T2, A1AR. Nature of the experiment: [35S]GTPγS binding, A1AR. The experiment is classed as biochemical. The settings on record: CHO cells expressing A1AR. A general note: GTPγS resists hydrolysis and so accumulates on activated G proteins.
Experimental: [^35S]GTPγS binding was measured in 200 μl of buffer containing 50 mM Tris-HCl (pH 7.4), 1 mM EDTA, 1 mM MgCl2, 10 μM GDP, 1 mM dithiothreitol, 100 mM NaCl, 3 units/ml adenosine deaminase, 0.2 nM [^35S]GTPγS, 0.004% CHAPS, 0.5% bovine serum albumin and increasing concentrations of the ligands. Samples were started by addition of the membrane suspension (5-10 μg protein/tube) to the test tubes and incubated at 25° C. for 30 min. The assay was terminated by rapid filtration through Whatman GF/B filters, pre-soaked in 50 mM Tris-HCl (pH 7.4) containing 5 mM MgCl2 and 0.02% CHAPS. Non-specific binding of [^35S] GTPγS was measured in the presence of 10 μM unlabelled GTPγS. After the filters were washed, they were placed in scintillation vials containing 5 mL of Hydrofluor scintillation buffer and counted using a Perkin Elmer Liquid Scintillation Analyzer.
For the next experiment, the target named is T3, A2AAR (Homo sapiens, UniProt P29274).
T3 construct: expressed in transfected cells; host or cells: CHO
T3 sequence (P29274 whole entry): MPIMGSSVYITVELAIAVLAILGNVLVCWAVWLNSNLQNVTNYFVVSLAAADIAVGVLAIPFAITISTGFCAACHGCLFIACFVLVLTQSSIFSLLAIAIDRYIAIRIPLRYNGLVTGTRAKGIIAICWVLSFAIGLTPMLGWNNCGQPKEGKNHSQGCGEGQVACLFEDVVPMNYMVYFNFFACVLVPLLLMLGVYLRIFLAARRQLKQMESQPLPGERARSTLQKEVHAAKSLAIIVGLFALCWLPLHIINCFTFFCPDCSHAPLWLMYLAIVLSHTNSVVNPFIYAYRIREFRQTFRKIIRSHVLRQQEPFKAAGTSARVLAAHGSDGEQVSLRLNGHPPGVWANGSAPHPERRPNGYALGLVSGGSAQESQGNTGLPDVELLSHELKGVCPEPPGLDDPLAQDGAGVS
In words: Binding at A2AAR with [3H]CGS21680, HEK cells.

Experiment [5] concerns the target T4, hA3 AR (Homo sapiens, UniProt P0DMS8).
T4 construct: expressed in transfected cells; host or cells: CHO cells
T4 sequence (P0DMS8 1-318): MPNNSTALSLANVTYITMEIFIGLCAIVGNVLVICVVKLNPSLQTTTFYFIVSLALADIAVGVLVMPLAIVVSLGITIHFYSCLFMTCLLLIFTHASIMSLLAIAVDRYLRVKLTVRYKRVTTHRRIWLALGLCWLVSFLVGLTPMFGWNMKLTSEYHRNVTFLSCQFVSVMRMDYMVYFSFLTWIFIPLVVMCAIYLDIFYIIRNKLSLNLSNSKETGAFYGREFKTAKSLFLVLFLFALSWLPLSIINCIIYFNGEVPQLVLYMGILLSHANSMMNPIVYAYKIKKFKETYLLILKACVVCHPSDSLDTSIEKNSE
Nature of the experiment: Calcium protocol, CHO cells expressing human A3 receptor. The experiment is classed as cell-based. The protocol:
Calcium Protocol. Chinese Hamster Ovary (CHO) cells stably expressing the human A3 receptor were grown in Dulbecco's Modified Eagle Medium/F12 (Sigma) supplemented with 10% fetal bovine serum, antibiotics, and glutamine. Each assay was completed by passaging the CHO A3 cells into 96 well plates and incubating overnight at 37° C. with 5% CO2. The FLIPR Calcium 4 Kit provided by Molecular Devices was used as described previously (Niebauer). Briefly, the media was removed from the cells, and 30 μl of the Calcium 4 fluorescent dye supplemented with 2.5 mM probenecid was added to each well. The cells were incubated at room temperature for 45 minutes. The compound plate was prepared by diluting the compounds to 10^−5-10^−9 M in Hanks Buffer. Samples were run in duplicate on the Molecular Devices FlexStation I at room temperature. […] Increases in intracellular calcium are reported as the relative fluorescence units after exposure minus the basal fluorescence value before exposure. Each experiment was repeated at least three times.

For another experiment, the target named is T5, hA1 AR (Homo sapiens, UniProt P30542).
T5 construct: expressed in transfected cells; host or cells: CHO cells
T5 sequence (P30542 1-326): T2 sequence (P30542 1-326)
Nature of the experiment: Radioligand membrane binding assay, A1 AR. The settings on record: Table 3; expressed in CHO cells.

For experiment [6], the target named is T6, A3 adenosine receptor (Homo sapiens, UniProt P0DMS8).
T6 sequence (P0DMS8 1-318): T4 sequence (P0DMS8 1-318)
Nature of the experiment: cAMP inhibition assay, A3 adenosine receptor. The experiment is classed as cell-based. Conditions: Table 8. An excerpt: (§2) This Example illustrates a preparation and some of the properties of conjugate 117 in accordance with an embodiment of the invention.

Another experiment addresses T7, A1 adenosine receptor (Homo sapiens, UniProt P30542).
T7 sequence (P30542 1-326): T2 sequence (P30542 1-326)
Nature of the experiment: cAMP inhibition assay, A1 adenosine receptor. Conditions: Table 8. Type of experiment: cell-based.
From the text: as §2

In experiment [7] the target is T6, A3 adenosine receptor. Nature of the experiment: Binding assay at A3 adenosine receptor (Table 7). The procedure: CHO (Chinese hamster ovary) cells expressing the recombinant human ARs were cultured in Dulbecco's modified Eagle medium (DMEM) and F12 (1:1) supplemented with 10% fetal bovine serum, 100 units/mL penicillin, 100 μg/mL streptomycin, and 2 μmol/mL glutamine. After harvesting, cells were homogenized and suspended. Cells were then centrifuged at 500 g for 10 min, and the pellet was resuspended in 50 mM Tris-HCl buffer (pH 7.5) containing 10 mM MgCl2. The suspension was homogenized and was then recentrifuged at 20 000 g for 20 min at 4° C. The resultant pellets were resuspended in Tris buffer, incubated with adenosine deaminase for 30 min at 37° C., and the suspension was stored at −80° C. until the binding experiments. The protein concentration was measured using the Bradford assay.
as §2

Experiment [8] deals with T4, hA3 AR. In words: Radioligand membrane binding assay, A3 AR. The settings on record: Table 3; expressed in CHO cells. The procedure: as §1
In experiment [9] the target is T1, hA2A AR. In words: Functional assay at hA2A AR (Table 3). The experiment is classed as cell-based. Further details: expressed in transfected cells. Conditions: Table 3 functional assay.

T1 sequence (P29274 whole entry): as the sequence (P29274 whole entry) above
Experimental for hA1 AR: Radioligand Membrane Binding Experiments. […] Each tube in the binding assay contained 100 μL of membrane suspension (20 μg of protein), 50 μL of agonist radioligand, and 50 μL of increasing concentrations of the test ligands in Tris-HCl buffer (50 mM, pH 7.5) containing 10 mM MgCl2. Nonspecific binding was determined using 10 mM 5′-N-ethylcarboxamidoadenosine diluted with the buffer. The mixtures were incubated at 25° C. for 60 min. Binding reactions were terminated by filtration through Whatman GF/B filters under a reduced pressure using a MT-24 cell harvester (Brandell, Gaithersburg, Md.). Filters were washed three times with 5 mL of 50 mM ice-cold Tris-HCl buffer (pH 7.5). […] After the filters were washed, the radioactivity was measured using a Beckman γ-counter. For the A1 and A2A assays, the radioactive agonists [^3H] N^6-chlorocyclopentyladenosine and [^3H] […] The Ki value was determined using GraphPad Prism for all assays.

The inhibition is the change of the read-out against control, counted positive when it falls. With `CCNC(=O)[C@H]1OC(n2cnc3c(N)nc(NCCc4ccc(CCC(=O)NCCNC(=S)Nc5ccc(N=C=S)cc5)cc4)nc32)[C@@H](O)C1O` (stereo partly shown) [compound 6], the inhibition at 10 µM at hA2A AR [1] (read-out: inhibition of binding at the hA2A AR) turned out to be 58%.

In the case of `CCNC(=O)[C@H]1O[C@@H](n2cnc3c(N)nc(NCCc4ccc(CCC(=O)NCCN)cc4)nc32)[C@H](O)[C@@H]1O` [compound 5, 2-[4-(2-aminoethylaminocarbonylethyl)phenylethylamino]-5′-N-ethylcarboxamidoadenosine], the “hA2A, EC50 (class symbol)” value at hA2A AR [2] is “FA (Full agonist at 10 μM with >90% of effect of NECA)”.

The Ki is a dissociation constant, usually derived from enzyme kinetics or from competition with a known ligand. A word on the EC50: it is the concentration needed to bring the measured effect to its halfway point. As for `O=C(O)CCc1ccc(NC(=S)NCCNC(=O)Cc2ccc(NC(=O)Cc3ccc(Nc4ncnc5c4ncn5[C@@H]4O[C@H](CO)[C@@H](O)[C@H]4O)cc3)cc2)cc1` [compound 104], the figures for the Ki at A1AR [3] and at A2AAR were 30 nM and 800 ± 360 nM, respectively. In addition, a half-maximal effect on A1AR [4] (EC50) was put at 3000 ± 1300 nM.

On to `CCNC(=O)[C@H]1OC(n2cnc3c(N)nc(NCCc4ccc(CCC(=O)NCCNC(=S)Nc5ccc(NC(=S)NCCNC(C)=O)cc5)cc4)nc32)[C@@H](O)C1O` (stereo partly shown) [compound 7], for which the Ki on hA2A AR [1] came to 70 nM; on hA1 AR it was 840 ± 100 nM. Further, the EC50 on hA3 AR [5] is 375 ± 40 nM.

`NCCNC(=O)Cc1ccc(NC(=O)Cc2ccc(Nc3ncnc4c3ncn4[C@@H]3O[C@H](CO)[C@@H](O)[C@H]3O)cc2)cc1` [compound 101, N^6-[4-[[[4-[[[(2-Aminoethyl)amino]carbonyl]methyl]-anilino]carbonyl]methyl]phenyl]adenosine, reference compound]: the Ki on A1AR [3] was 10.4 ± 3.8 nM; at A2AAR it was 370 ± 100 nM. In addition, on A1AR [4], the half-maximal effective concentration (EC50) turned out to be 120 ± 13 nM.

Turning to `NCCNCCNC(=O)Cc1ccc(NC(=O)Cc2ccc(Nc3ncnc4c3ncn4[C@@H]3O[C@H](CO)[C@@H](O)[C@H]3O)cc2)cc1` [compound 107, N-(2-Aminoethyl)-ADAC], the inhibition constant (Ki) at A3 adenosine receptor [6] came to 61 nM; on A1AR [3], 43 nM; on A1 adenosine receptor it was 72 nM; on A2AAR, 300 ± 20 nM; at A3 adenosine receptor [7], 10 ± 2 nM. Further, the EC50 at A1AR [4] turned out to be 50 nM.

Take `CCNC(=O)[C@H]1OC(n2cnc3c(N)nc(NCCc4ccc(CCC(=O)NCCNC(C)=O)cc4)nc32)[C@@H](O)C1O` (stereo partly shown) [compound 16]: the Ki at hA2A AR [1] came out at 110 ± 15 nM; at hA3 AR [8], 58 ± 24 nM; on hA1 AR it was 984 ± 223 nM. The concentration giving a half-maximal response (EC50) at hA3 AR [5] was 725 ± 110 nM; at hA2A AR [9], 51 ± 8 nM.
